The values that follow come from US10399932B2, “Inhibitors of indoleamine-2,3-dioxygenase for the treatment of cancer” (BRISTOL-MYERS SQUIBB COMPANY, priority 2015, dated 2019).

Bounds are passed on as bounds.

human IDO1, sequence (P14902 whole entry): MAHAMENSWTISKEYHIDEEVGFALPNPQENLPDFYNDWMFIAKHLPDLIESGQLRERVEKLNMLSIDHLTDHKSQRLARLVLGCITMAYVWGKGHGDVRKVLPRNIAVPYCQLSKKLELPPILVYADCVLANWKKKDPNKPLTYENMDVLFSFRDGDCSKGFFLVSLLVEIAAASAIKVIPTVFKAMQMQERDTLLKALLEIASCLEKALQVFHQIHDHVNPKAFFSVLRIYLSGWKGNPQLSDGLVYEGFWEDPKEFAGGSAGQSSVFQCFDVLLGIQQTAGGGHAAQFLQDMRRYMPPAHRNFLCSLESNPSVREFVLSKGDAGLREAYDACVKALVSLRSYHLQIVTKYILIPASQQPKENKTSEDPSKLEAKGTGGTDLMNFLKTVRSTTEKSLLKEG

The target in this experiment is human IDO1 (Homo sapiens, UniProt P14902). Briefly: Assessment of human IDO-1 inhibitory activity in Hela cells (Interferon-gamma activated, Ehrlich reagent, absorbance at 490 nm). It is filed as cell-based. More on the design: endogenous in cells; host or cells: HeLa cells stimulated with interferon-gamma. The conditions noted are these: 18 hours. Summed up:
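HeLa cells were preincubated with compound for 1 h at 37 °C, then stimulated with human IFN-γ (10 ng/ml final) or murine IFN-γ (5 ng/ml final) for 18 h. Kynurenine was read after TCA (3% final, 50 °C for 30 min) and Ehrlich reagent at A490. For IC50, unstimulated wells were set as 100% inhibition and IFN-γ alone as 0%.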
The IC50 is the concentration that gives 50% inhibition. A higher IC50 goes with a need for much substance. Compound `CCC(CC(=O)O)c1ccc(N2CC(O)(c3ccc(F)cc3)C2)c(Nc2ccc(C#N)cc2)c1` (single isomer, unassigned) [Example 1255, 3-(3-((4-cyanophenyl)amino)-4-(3-(4-fluorophenyl)-3-hydroxyazetidin-1-yl)phenyl)pentanoic acid] displayed an IC50 of under 50 nM.
`CCC(CC(=O)O)c1ccc(N(CCOC)C2CCOCC2)c(Nc2ccc(C#N)cc2)c1` (single isomer, unassigned) [Example 1261, 3-(3-((4-cyanophenyl)amino)-4-((2-methoxyethyl)(tetrahydro-2H-pyran-4-yl)amino)phenyl)pentanoic acid] had an IC50 of under 5 nM.
`CCC(CC(=O)O)c1ccc(N(CCOC)C2CCOCC2)c(Nc2cnc(OC)nc2)c1` (single isomer, unassigned) [Example 1262, 3-(4-((2-methoxyethyl)(tetrahydro-2H-pyran-4-yl)amino)-3-((2-methoxypyrimidin-5-yl)amino)phenyl)pentanoic acid] registered an IC50 of under 50 nM.
On to `CCOc1ncc(Nc2cc(C(CC)CC(=O)O)ccc2N(CCOC)C2CCOCC2)cn1` (single isomer, unassigned) [Example 1263, 3-(3-((2-ethoxypyrimidin-5-yl)amino)-4-((2-methoxyethyl)(tetrahydro-2H-pyran-4-yl)amino)phenyl)pentanoic acid], for which the IC50 is under 50 nM.
In turn, `CCC(CC(=O)O)c1ccc(N(CCOC)C2CCOCC2)c(NC(=O)Nc2ccc(Cl)cc2F)c1` (single isomer, unassigned) [Example 1266, 3-(3-(3-(4-chloro-2-fluorophenyl)ureido)-4-((2-methoxyethyl) (tetrahydro-2H-pyran-4-yl)amino)phenyl)pentanoic acid] displayed an IC50 of under 50 nM.
On to `CCC1COCCN1c1ccc([C@@H](COC)CC(=O)O)cc1Nc1ccc(C#N)c(F)c1` (single isomer, unassigned) [Example 1296], for which the IC50 is over 50 nM.
As for `CCC1COCCN1c1ccc([C@@H](COC)CC(=O)O)cc1Nc1ccc(C#N)cn1` (single isomer, unassigned) [Example 1297], the figure is over 50 nM; as for `CCC1COCCN1c1ccc([C@@H](COC)CC(=O)O)cc1Nc1cnc(OC)nc1` (single isomer, unassigned) [Example 1298], over 50 nM; as for `CCOc1ncc(Nc2cc([C@@H](COC)CC(=O)O)ccc2N2CCOCC2CC)cn1` (single isomer, unassigned) [Example 1299], over 50 nM.
Then `CCC1COCCN1c1ccc([C@H](COC)CC(=O)O)cc1Nc1ccc(C#N)cn1` (single isomer, unassigned) [Example 1305], with over 50 nM.
Compound `CCC1COCCN1c1ccc([C@H](COC)CC(=O)O)cc1Nc1cnc(OC)nc1` (single isomer, unassigned) [Example 1306] had an IC50 of over 50 nM.
As for `CCOc1ncc(Nc2cc([C@H](COC)CC(=O)O)ccc2N2CCOCC2CC)cn1` (single isomer, unassigned) [Example 1307], the figure is over 50 nM; as for `CCC1COCCN1c1ccc([C@H](COC)CC(=O)O)cc1Nc1ccc(Cl)cc1` (single isomer, unassigned) [Example 1308], under 50 nM; as for `CCC1COCCN1c1ccc([C@H](COC)CC(=O)O)cc1Nc1ccc(F)cn1` (single isomer, unassigned) [Example 1310], over 50 nM.
With `COCC(CC(=O)O)c1ccc(N2CCOC(C)C2)c(Nc2ccc(C#N)cc2)c1` (single isomer, unassigned) [Example 1313], the IC50 is over 50 nM.
For `COCC(CC(=O)O)c1ccc(N2CCOC(C)(C)C2)c(Nc2ccc(C#N)cc2)c1` (single isomer, unassigned) [Example 1317], the IC50 is over 50 nM.
As for `COCC(CC(=O)O)c1ccc(N2CCC(c3ccccc3)CC2)c(Nc2ccc(C#N)cc2)c1` (single isomer, unassigned) [Example 1350 E2, 3-(3-((4-Cyanophenyl)amino)-4-(4-phenylpiperidin-1-yl)phenyl)-4-methoxybutanoic acid], the IC50 was under 5 nM.
`CCN(c1cc(F)c([C@@H](COC)CC(=O)O)cc1Nc1ccc(Cl)cc1)C1CCOCC1` (stereo in doubt) [Example 851, 3-(5-((4-chlorophenyl)amino)-4-(ethyl(tetrahydro-2H-pyran-4-yl)amino)-2-fluorophenyl)-4-methoxybutanoic acid]: the IC50 is under 5 nM.
Then `CCOc1ncc(Nc2cc(C(CC(=O)O)C3CC3)ccc2N2C[C@@H](C)O[C@@H](C)C2)cn1` (stereo partly drawn) [Example 250, 3-cyclopropyl-3-(4-((2R,6S)-2,6-dimethylmorpholino)-3-((2-ethoxypyrimidin-5-yl)amino)phenyl) propanoic acid], with over 50 nM; and `COCC(CC(=O)OC)c1ccc(N(CC(F)F)C2CCOCC2)c(Nc2ccc(Cl)cc2)c1` (stereo not shown) [Example 319, methyl 3-(3-((4-chloro-phenyl)amino)-4-((2,2-difluoroethyl) (tetrahydro-2H-pyran-4-yl)amino)phenyl)-4-methoxy-butanoate], with under 5 nM; and `COCC(CC(=O)OC)c1ccc(N(CC(F)F)C2CCOCC2)c(Nc2ccc(Cl)cc2)c1` (stereo not shown) [Example 320, methyl 3-(3-((4-chloro-phenyl)amino)-4-((2,2-difluoroethyl) (tetrahydro-2H-pyran-4-yl)amino)phenyl)-4-methoxy-butanoate], with over 50 nM.
As for `CCN(c1ccc([C@@H](COC)CC(=O)O)cc1Nc1cccc(OC(F)(F)C(F)F)c1)C1CCOCC1` [Example 361, (S)-3-(4-(ethyl(tetrahydro-2H-pyran-4-yl)amino)-3-((3-(1,1,2,2-tetrafluoroethoxy)phenyl)amino)phenyl)-4-methoxybutanoic acid], the IC50 was under 5 nM.
`CCN(c1ccc([C@@H](COC)CC(=O)O)cc1Nc1ccc(C#N)c(OC)c1)C1CCOCC1` [Example 380]: the IC50 was under 50 nM.
Then `CCN(c1ccc([C@H](COC)CC(=O)O)cc1Nc1cccc(OC(F)(F)C(F)F)c1)C1CCOCC1` [Example 398, (R)-3-(4-(ethyl(tetrahydro-2H-pyran-4-yl)amino)-3-((3-(1,1,2,2-tetrafluoroethoxy)phenyl)amino)phenyl)-4-methoxybutanoic acid], with under 5 nM; and `CCN(c1ccc([C@@H](COC)CC(=O)O)cc1NC(=O)Nc1ccc(C#N)cc1)C1CCOCC1` [Example 422 E1, (S)-3-(3-(3-(4-Cyanophenyl)ureido)-4-(ethyl(tetrahydro-2H-pyran-4-yl)amino)phenyl)-4-methoxybutanoic acid], with over 50 nM; and `CCN(c1cc(F)c(C(COC)CC(=O)O)cc1Nc1ccc(Cl)cc1)C1CCOCC1` (stereo not shown) [Example 845, 3-(5-((4-chlorophenyl)amino)-4-(ethyl(tetrahydro-2H-pyran-4-yl)amino)-2-fluorophenyl)-4-methoxybutanoic acid], with under 50 nM.
“(R)-3-(3-((4-chlorophenyl)amino)-4-((1,1-dioxidotetrahydro-2H-thiopyran-4-yl)(ethyl)amino)phenyl)-4-isopropoxybutanoic acid [Example 330]” showed an IC50 of under 5 nM.
Compound “(R)-3-(3-((4-cyano-3-methylphenyl)amino)-4-(ethyl(tetrahydro-2H-pyran-4-yl)amino)phenyl)-4-methoxybutanoic acid [Example 391]” came in with an IC50 of under 50 nM.
